From ChEMBL document CHEMBL5032503 (J Med Chem, 2021)
Active and inactive are the calls of the source. The calls are words filed in the database; no cut-off is given here.

How the values were obtained:
[1] = target: T1, Nuclear receptor subfamily 2 group E member 1 (Homo sapiens, UniProt Q9Y466); test: Agonist activity at in human TLX LBD expressed in human HEK293T cells coexpressing Gal4-VP 16 assessed as remaining activity measured after 14 hrs by luciferase reporter gene assay relative to control; type: cell-based; settings: filed as agonist
[2] = target: T1, Nuclear receptor subfamily 2 group E member 1; test: Agonist activity at in human TLX LBD expressed in human HEK293T cells coexpressing Gal4-VP 16 assessed as increase in reporter activity measured after 14 hrs by luciferase reporter gene assay relative to control; type: cell-based
[3] = target: T1, Nuclear receptor subfamily 2 group E member 1; test: Inverse agonist activity at in human TLX LBD expressed in human HEK293T cells coexpressing Gal4-VP 16 assessed as fold increase in reporter activity at 100 uM measured after 14 hrs by luciferase reporter gene assay relative to control; type: cell-based; settings: filed as inverse agonist
[4] = target: T1, Nuclear receptor subfamily 2 group E member 1; test: Stabilization of human recombinant TLX LBD assessed as change in melting temperature at 500 uM by DSF assay
[5] = target: T1, Nuclear receptor subfamily 2 group E member 1; test: Agonist activity at in human TLX LBD expressed in human HEK293T cells coexpressing Gal4-VP 16 assessed as fold […] in reporter activity at 100 uM measured after 14 hrs by luciferase reporter gene assay relative to control; type: cell-based; settings: filed as agonist
[6] = target: T1, Nuclear receptor subfamily 2 group E member 1; test: Inverse agonist activity at full length TLX activating element expressed in human HEK293T cells coexpressing human full-length TLX/Gal4-VP 16 assessed as fold […] in reporter activity at 100 uM by luciferase reporter gene assay relative to control; type: cell-based; settings: filed as inverse agonist
T98G [7] = test: Inhibition of cell migration in human T98G cells at 75 uM incubated for 24 hrs by crystal violet staining based by Boyden chamber method; type: functional
[8] = target: T1, Nuclear receptor subfamily 2 group E member 1; test: Agonist activity at human TLX LBD expressed in human HEK293T cells coexpressing Gal4-VP 16 incubated for 14 hrs at 300 uM; type: cell-based
T98G [9] = test: Cytotoxicity against human T98G cells assessed as cell viability by WST-1 assay; type: functional, cell-based
T98G [10] = test: Induction of apoptosis in human T98G cells assessed as viable cells at 100 nM measured after 72 hrs by propidium iodide staining based flow cytometry; type: functional, cell-based
[11] = target: T1, Nuclear receptor subfamily 2 group E member 1; test: Agonist activity at human TLX LBD expressed in human HEK293T cells coexpressing Gal4-VP 16 incubated for 14 hrs at 100 uM; type: cell-based
[12] = target: T1, Nuclear receptor subfamily 2 group E member 1; test: Agonist activity at TAE expressed in human HEK293T cells coexpressing human full-length TLX/Gal4-VP 16 assessed as renilla luciferase reporter activity incubated for 14 hrs by Dual-glo luciferase
[13] = target: T1, Nuclear receptor subfamily 2 group E member 1; test: Agonist activity at full length TLX activating element expressed in human HEK293T cells coexpressing human full-length TLX/Gal4-VP 16 assessed as fold increase in reporter activity at 100 uM by luciferase reporter gene assay relative to control; type: cell-based; settings: filed as agonist
[14] = Effect on Gal4-VP16 plasmid transfected in human HEK293T cells assessed as reporter activity incubated for 14 hrs by luciferase assay; type: functional, HEK-293T
T98G [15] = test: Effect on TLX regulated gene expression in human T98G cells assessed as decrease in PTEN mRNA expression at 50 uM after 8 hrs by qRT-PCR analysis; type: functional, cell-based
[16] = target: T1, Nuclear receptor subfamily 2 group E member 1
Description: Binding affinity to TLX LBD expressed in His6-tagged Escherichia coli Rosetta assessed as binding constant measured after 300 sec at 200 mM by isothermal titration calorimetry

T98G [17] = test: Effect on TLX regulated gene expression in human T98G cells assessed as decrease in TET3 mRNA expression at 50 uM after 8 hrs by qRT-PCR analysis; type: functional, cell-based
[18] = target: T1, Nuclear receptor subfamily 2 group E member 1; test: Agonist activity at full length TLX activating element expressed in human HEK293T cells coexpressing human full-length TLX/Gal4-VP 16 assessed as decrease in reporter activity at 100 uM by luciferase reporter gene assay relative to control
T98G [19] = test: Effect on TLX regulated gene expression in human T98G cells assessed as induction of mRNA expression at 50 uM after 8 hrs by qRT-PCR analysis; type: functional, cell-based
T98G [20] = test: Effect on TLX regulated gene expression in human T98G cells assessed as induction of SIRT1 mRNA expression at 50 uM after 8 hrs by qRT-PCR analysis; type: functional, cell-based

T1 sequence (Q9Y466 whole entry, the tested form may be a part): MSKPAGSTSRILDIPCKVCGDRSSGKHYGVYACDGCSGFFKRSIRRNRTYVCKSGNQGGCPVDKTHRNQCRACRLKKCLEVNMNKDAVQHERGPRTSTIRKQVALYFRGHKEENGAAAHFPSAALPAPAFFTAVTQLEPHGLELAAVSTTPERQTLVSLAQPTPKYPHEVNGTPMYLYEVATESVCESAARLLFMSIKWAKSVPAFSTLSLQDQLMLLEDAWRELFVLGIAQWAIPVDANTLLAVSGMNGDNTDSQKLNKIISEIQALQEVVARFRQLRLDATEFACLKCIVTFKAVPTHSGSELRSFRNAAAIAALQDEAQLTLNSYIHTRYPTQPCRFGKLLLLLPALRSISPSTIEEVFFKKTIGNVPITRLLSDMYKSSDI

## CC(C)NCCCOc1cccc2ccccc12
[1]
  fold change (FC): 0.42
[2]; read-out: EC50
  EC50: 50 µM

## CC(C)NC[C@H](O)COc1cccc2ccccc12 [LEVOPROPRANOLOL]
[1]
  fold change (FC): 0.25
[2]; read-out: EC50
  EC50: 72 µM

## COc1ccc2[nH]c(SC)nc2c1
[3]
  fold change (FC): 2.7
[4]; filed as modulator
  ΔTm: 0.5 °C
[5]
  fold change (FC): 2.7
[6]
  fold change (FC): 1.33

## Nc1cnc2ccccc2n1
[4]; filed as modulator
  ΔTm: 1.2 °C
[5]
  fold change (FC): 2.9
[6]
  fold change (FC): 1.8

## CC(C)NCC(O)COc1ccnc2ccccc12 (centres undefined)
T98G [7]
  cell migration inhibition (active/not active call): inactive
[8]
  Activity: inactive
T98G [9]
  Activity: Active
T98G [10]
  Activity: inactive

## CCCNCC(O)COc1ccccc1C(=O)CCc1ccccc1 (racemic) [PROPAFENONE]
[1]
  fold change (FC): 0.2
[2]; read-out: EC50
  EC50: 47 µM

## CC(C)NC[C@@H](O)COc1cccc2ccccc12 [DEXPROPRANOLOL]
[1]
  fold change (FC): 0.4
[2]; read-out: EC50
  EC50: 40 µM

## CNC(=O)c1cc(Cl)c(N)cc1OC
[4]
  ΔTm: -0.3 °C
[5]
  fold change (FC): 0.46
[6]
  fold change (FC): 1.05

## O=C1Nc2ccccc2Nc2ccccc21
[4]
  ΔTm: 0.6 °C
[5]
  fold change (FC): 0.47
[6]
  fold change (FC): 1.12

## CC(C)NCC(O)c1ccc(NS(C)(=O)=O)cc1 (racemic) [SOTALOL]
T98G [7]
  cell migration inhibition (active/not active call): inactive
T98G [9]
  Activity: Active
[2]; hek293t
  EC50: Not Active
T98G [10]
  Activity: inactive

## OC(COc1cccc2ccccc12)CN1CCCCC1 (centres undefined)
[11]
  Activity: inactive

## Cn1c(=O)[nH]c2[nH]cnc2c1=O
[3]
  fold change (FC): 3.3
[4]; filed as modulator
  ΔTm: 1.1 °C
[6]
  fold change (FC): 1.47

## NC1CCc2[nH]c3ccccc3c2C1 (centres undefined)
[1]
  fold change (FC): 0.5
[12]
  EC50: > 100 µM
[13]
  fold change (FC): 1.98
[4]; filed as agonist
  ΔTm: 2.4 °C
[5]
  fold change (FC): 0.45
[2]; read-out: EC50
  EC50: 67 µM
[6]
  fold change (FC): 2.1

## CC(C)NCC(O)COc1cccc2ccccc12 (racemic) [PROPRANOLOL]
T98G [7]
  cell migration inhibition (active/not active call): Active
[1]
  fold change (FC): 0.08
[12]
  EC50: 37 µM
[14]
  Activity: 8%
T98G [15]
  Activity: Active
[16]
  Kd: 0.5 µM
T98G [17]
  Activity: Active
[18]
  EC50: 32 µM
T98G [19]
  Activity: Active
T98G [9]
  Activity: Active
T98G [20]
  Activity: Active
[2]; read-out: EC50
  EC50: 32 µM
T98G [10]
  Activity: inactive

## CC(C)N(C)CC(O)COc1cccc2ccccc12 (centres undefined)
[2]; read-out: EC50
  EC50: > 100 µM

## CC(C)OCC(O)COc1cccc2ccccc12 (centres undefined)
[1]
  fold change (FC): 0.29
[2]; read-out: EC50
  EC50: 83 µM

## O=c1[nH]nc(Cc2ccccc2)c2ccccc12
[13]
  fold change (FC): 0.57
[4]
  ΔTm: -0.5 °C
[5]
  fold change (FC): 0.17

## COC(CNC(C)C)COc1cccc2ccccc12 (centres undefined)
[1]
  fold change (FC): 0.28
[2]; read-out: EC50
  EC50: 52 µM

## c1ccc2c3c([nH]c2c1)CNCC3 [TRYPTOLINE]
[1]
  fold change (FC): 0.4
[12]
  EC50: > 100 µM
[13]
  fold change (FC): 2.15
[4]; filed as agonist
  ΔTm: 1.2 °C
[5]
  fold change (FC): 0.47
[2]; read-out: EC50
  EC50: 74 µM
[6]
  fold change (FC): 2.2

## Clc1ccc(C(c2ccccc2)N2CCNCC2)cc1 (centres undefined)
[13]
  fold change (FC): 0.57
[4]
  ΔTm: -2.3 °C
[5]
  fold change (FC): 0.37

## NCC(O)COc1cccc2ccccc12 (centres undefined)
[1]
  fold change (FC): 0.07
[12]
  EC50: 43 µM
[4]; filed as agonist
  ΔTm: 1.5 °C
[5]
  fold change (FC): 0.27
[2]; read-out: EC50
  EC50: 19.4 µM
[6]
  fold change (FC): 2.3

## CC(C)NCC(O)COc1ccc(CC(N)=O)cc1 (racemic) [ATENOLOL]
T98G [7]
  cell migration inhibition (active/not active call): inactive
T98G [15]
  Activity: inactive
T98G [17]
  Activity: inactive
T98G [19]
  Activity: inactive
T98G [9]
  Activity: Active
T98G [20]
  Activity: inactive
[2]; hek293t
  EC50: Not Active
T98G [10]
  Activity: inactive

## CN1CC(=O)N2[C@H](c3ccc4c(c3)OCO4)c3[nH]c4ccccc4c3C[C@@H]2C1=O
[1]
  fold change (FC): 0.62
[2]; read-out: EC50
  EC50: 5 µM

## Cc1cn(-c2cc(N)cc(C(F)(F)F)c2)cn1
[13]
  fold change (FC): 0.65
[4]
  ΔTm: -3.2 °C
[5]
  fold change (FC): 0.44

## CCCCOc1cc(C(=O)NC)c2ccccc2n1
[13]
  fold change (FC): 0.68
[4]
  ΔTm: 1.1 °C
[5]
  fold change (FC): 32

## CC(=O)N1CCN(c2ccc(O)cc2)CC1
[13]
  fold change (FC): 0.86
[4]
  ΔTm: 0.8 °C
[5]
  fold change (FC): 0.5

## O=C(O)CCCc1ccc(-c2ccccc2)cc1
[13]
  fold change (FC): 0.41
[4]
  ΔTm: -1.4 °C
[5]
  fold change (FC): 0.34
